This passage reports RP-LC retention time results from the METLIN SMRT retention time set (Domingo-Almenara et al. 2019).

A short description of the data set: gradient 5% acetonitrile 3 min, to 50% in 2 min, to 85% in 15 min, held 3 min, 100 µL/min. Particulars: column: Zorbax Extend-C18 2.1 x 50 mm; eluents: water / acetonitrile, 0.1% formic acid. In short, it runs like this:
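Retention times come from adduct peaks that were picked computationally and then checked by hand. The standards, pure and pooled in mixtures of ~100 molecules, were run on a Zorbax Extend-C18 column (2.1 × 50 mm, 1.8 μm) at 100 μL/min with water and acetonitrile, each with 0.1% formic acid. Detection was by quadrupole time-of-flight mass spectrometry in positive and negative ionization mode, with a dead volume of 40 μL and a dwell volume of 900 μL.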
The molecule `COc1ccccc1-n1ccn2cc(-c3ccc4c(c3)OCO4)nc2c1=O` gave an RP-LC retention time of 776 s. In turn, `COc1cccc(CNC(=O)c2ccc3c(c2)nc2n3CCN(Cc3ccccn3)C2=O)c1` yielded an RP-LC retention time of 626 s.

`Cc1nc(C)c(C(=O)NCC23CCCC=C2N(C)C(=O)CC3)s1` (stereo not given) gave an RP-LC retention time of 682 s. In the case of `CC(C(=O)N1CCCN(c2cc(=O)n(C(C)C)c(=O)n2C(C)C)CC1)N1C(=O)COc2ccccc21` (stereo not given), the RP-LC retention time was 846 s. For the molecule `COCc1nncn1C1CCN(S(=O)(=O)c2ccccc2Cl)CC1`, the RP-LC retention time is 697 s. Regarding `O=C(NCC1CCOCC1)Nc1ccccc1Br`, the RP-LC retention time was found to be 740 s. With `COc1cc(NC(=O)c2cnc3c(c2)c(=O)n(C)c(=O)n3-c2ccc(C)cc2)cc(OC)c1`, the RP-LC retention time amounted to 952 s. `O=C(Cn1nc2c3sc(N4CCCCC4)nc3ncn2c1=O)Nc1ccc(Cl)cc1F` registered an RP-LC retention time of 868 s.

With `COc1ccccc1NC(=O)c1c(O)c2cccnc2n(-c2cccc(F)c2)c1=O`, the RP-LC retention time was found to be 1210 s. Take `CCc1ccc(NC(=O)c2c(O)c3cccnc3n(-c3ccc(F)cc3)c2=O)cc1`: the RP-LC retention time came to 1230 s. The same measure for `c1ccc2c(c1)CCC[C@H]2Nc1nc2ccccc2[nH]1`: 705 s; for `Cc1ccn2cc(C(=O)NCc3ccccc3Cl)nc2c1`: 675 s. Take `CCn1ncc(NC(=O)c2ccc(Br)cc2)c(N2CCOCC2)c1=O`: the RP-LC retention time is 884 s. `CN(Cc1cc(C(F)(F)F)ccc1Cl)C1CCc2nn(C)c(=O)n2CC1` (stereo not given) yielded an RP-LC retention time of 610 s. In turn, `CCC(=O)N1CCc2cn(C)c3cccc(c23)C1` yielded an RP-LC retention time of 768 s. `COc1ccc(-c2cn3c(CC(=O)Nc4cccnc4)csc3n2)cc1OC` yielded an RP-LC retention time of 581 s.

The molecule `O=C(Cc1ccccc1F)Nc1cnc(-c2cccnc2)nc1` returned an RP-LC retention time of 652 s. For `COc1ccccc1CCC(=O)N1C[C@@H]2C[C@H](NC(=O)c3cccs3)[C@H]1C2`, the RP-LC retention time came to 782 s. With `COc1ccc(-c2noc(Cc3nnc(-c4ccc(C)c(F)c4)o3)n2)cc1OC`, the RP-LC retention time amounted to 996 s.

In the case of `CC(=O)NCc1cn[nH]c1-c1ccc(Cl)cc1`, the RP-LC retention time stood at 625 s. The same measure for `CCCNC(=O)C1CCN(c2ccc(SCC(=O)Nc3cccc(C)c3C)nn2)CC1`: 642 s; for `O=C(NCC1CC1)C1CCN(c2nc3ccsc3c(=O)n2Cc2ccccc2)CC1`: 814 s; for `O=C(NCCCn1nc(-c2ccc(F)cc2)ccc1=O)Nc1cc(Cl)ccc1Cl`: 566 s. For `COc1ccc(NC(=O)N2CCCC2c2nncn2C2CCCC2)c(OC)c1` (stereo not given), the RP-LC retention time was determined as 662 s.

Turning to `CCOCCCNC(=O)C1CCN(c2cnn(Cc3ccccc3)c(=O)c2)CC1`, the RP-LC retention time stood at 679 s. The same measure for `c1cncc(-c2nc(-c3ccc(OC4CN(Cc5ccsc5)C4)cc3)no2)c1`: 693 s; for `CCCn1c(C)cnc1C1CN(S(=O)(=O)c2ccc(F)c(F)c2)C1`: 695 s. `CCOC(=O)N1CCN(/C=C2\Oc3c(ccc(O)c3C)C2=O)CC1`: the RP-LC retention time was 637 s. Molecule `Cc1cc(C)cc(N2C(=O)N(CC(=O)N3CCC(C)CC3)C3CS(=O)(=O)CC32)c1` (stereo not given) came in with an RP-LC retention time of 816 s. In turn, `CN(C)S(=O)(=O)N1CCC(n2c(Cc3ccccc3)nn(C)c2=O)CC1` gave an RP-LC retention time of 748 s. Turning to `CN(C)c1ccc(/C=C2\SC(=O)N(CC(=O)Nc3ccccc3C(F)(F)F)C2=O)cc1`, the RP-LC retention time was determined as 992 s.

Take `COc1ccc(NC(=O)N2C[C@@H](F)C[C@H]2C(=O)N2CCc3ccccc3C2)cc1OC`: the RP-LC retention time came to 732 s.

`c1ccc(-n2ncc3c(NCc4ccc5c(c4)OCO5)ncnc32)cc1` registered an RP-LC retention time of 877 s. For the molecule `O=C(c1ccc(Cl)cc1)N1CCN=C1N1CCCCC1`, the RP-LC retention time amounted to 640 s. `COc1cc2c(cc1OC)CN(C(=O)C1CC(=O)N(c3n[nH]c4cccc(F)c34)C1)CC2` (stereo not given) came in with an RP-LC retention time of 689 s. `O=C(C1CC1)N1CCc2sc(S(=O)(=O)NCc3cccc(Cl)c3)cc2C1` came in with an RP-LC retention time of 923 s. The same measure for `Cc1noc(C)c1-c1ccc(S(=O)(=O)N2CCCC2)cc1`: 951 s; for `CC1=C(c2ccccc2)S(=O)(=O)N=C1N1CCCN(C(=O)Nc2ccccc2)CC1`: 669 s. `COc1cc(-c2noc(Cn3ncn4nc(-c5ccc(C)cc5C)cc4c3=O)n2)cc(OC)c1OC` yielded an RP-LC retention time of 1130 s. `Cc1ccc2nc(C(=O)NC3CCN(Cc4ccccc4)CC3)cn2c1` showed an RP-LC retention time of 560 s. Take `CCOC(=O)C1CCCN(Cc2nc3nc(C)cc(N4CCOCC4)n3n2)C1` (stereo not given): the RP-LC retention time worked out at 576 s.

`CC1CCCN(CCCNC(=O)Cn2c3ccccc3c3cnn(C)c(=O)c32)C1` (stereo not given) had an RP-LC retention time of 612 s. Molecule `CCN1CCC2(CC1)OC(=O)C(C)=C2C(=O)N1CCN(c2cccc(OC)c2)CC1` registered an RP-LC retention time of 634 s.

The molecule `O=C(c1cc(-c2ccncc2)n[nH]1)N1CCCC(C(=O)N2CCN(c3ncccn3)CC2)C1` (stereo not given) displayed an RP-LC retention time of 579 s. With `CCCCN(C)C(=O)C1CCCN(c2nnc(C)c3c(C)n(-c4ccc(Cl)cc4)nc23)C1` (stereo not given), the RP-LC retention time stood at 782 s. Consider `COc1ccc(C(=O)N2CCc3nc(CNC(=O)C4CCC4)n(C)c3C2)cc1`, for which the RP-LC retention time was 516 s. In the case of `Cc1nccn1-c1cc(N2CCC3(CC2)OCCO3)nc2ccnn12`, the RP-LC retention time was 577 s. On to `COc1ccc(/C=C2/CCOC2=O)cc1`, for which the RP-LC retention time is 833 s. Turning to `CC(C)N1C(=O)Cc2ccccc2C1C(=O)NCc1cccs1` (stereo not given), the RP-LC retention time amounted to 750 s.

On to `Cn1nnc2cc(-c3noc(C4CC(=O)N(c5ccccc5)C4)n3)ccc21` (stereo not given), for which the RP-LC retention time stood at 788 s.

Regarding `COC(=O)c1ccc(C(=O)N(Cc2ccccn2)Cc2ccco2)cc1`, the RP-LC retention time stood at 650 s. Turning to `Cc1cc(N(C)C)nc(N2CCN(C(=O)c3ccc(C(C)(C)C)cc3)CC2)n1`, the RP-LC retention time is 736 s. In turn, `O=C(CCSc1ccccc1)N1CCCC(c2nnc(-c3cccs3)o2)C1` (stereo not given) displayed an RP-LC retention time of 837 s. As for `CC(=O)NC(C)c1nc(-c2ccc(Cl)cc2)no1` (stereo not given), the RP-LC retention time amounted to 777 s. Consider `CCCN(C)c1nccnc1OC1CCN(C(=O)C2CCCCC2)C1` (stereo not given), for which the RP-LC retention time was 938 s.

Turning to `COc1ccc(-c2cc3c(=O)n(Cc4ccccc4)ccn3n2)cc1OC`, the RP-LC retention time is 906 s. Molecule `O=C(Cn1ccc2ccn(Cc3cccnc3)c2c1=O)N1CCCC1` displayed an RP-LC retention time of 578 s. `COc1ccc(N2CCN(c3cc(C(=O)O)c4cc(NC(=O)CC(C)C)ccc4n3)CC2)cc1` showed an RP-LC retention time of 655 s. The same measure for `Cc1ccc(C(=O)N2CCN(c3ccc(=O)n(-c4ccc(Cl)cc4)n3)CC2)s1`: 885 s; for `CCOC(=O)c1c(C)[nH]c(C(=O)N2CCCC(C(=O)NCc3ccccc3C)C2)c1C` (stereo not given): 814 s; for `Cc1cc(Nc2ccc(NC(=O)c3ccc4c(c3)OCO4)cc2)nc(N2CCOCC2)n1`: 656 s. In turn, `Cc1cc(Cl)ccc1NC(=O)Cn1ccc2sccc2c1=O` returned an RP-LC retention time of 764 s. As for `Cc1ccccc1-c1noc(CN2C(=O)COc3ccccc32)n1`, the RP-LC retention time was found to be 1040 s. The figure for `CCCCNC(=O)c1ccc(-c2nc(CCN(C)C(=O)CC)no2)cc1` is 740 s; for `O=C(c1ccoc1)N1CCc2[nH]cnc2C1c1ccccc1` (stereo not given) it is 585 s. `CCCC(NC(=O)c1cc(C)cc(C)c1)C(=O)Nc1nc2ccccc2[nH]1` (stereo not given) had an RP-LC retention time of 751 s. `CCCc1noc(-c2cccn3c(CC(=O)N4CCOCC4)nnc23)n1` displayed an RP-LC retention time of 626 s. `CCn1ccc(C(=O)N2CC(Oc3ccc(-c4nc(C)no4)cc3)C2)n1` registered an RP-LC retention time of 819 s. The molecule `Cc1sc(-c2cc(C(F)(F)F)on2)cc1S(=O)(=O)NCc1ccccc1Cl` gave an RP-LC retention time of 1140 s. Molecule `CCCn1cnnc1C1CCN(Cc2cccc(OCC)c2)CC1` displayed an RP-LC retention time of 601 s. `CCc1ccc(NC(=O)Cn2c(C(C)C)nc3c(c2=O)CCN(Cc2ccccc2)C3)cc1` showed an RP-LC retention time of 705 s.

Molecule `Cc1ccc(NC(=O)C2CCN(S(=O)(=O)c3cc(C(=O)N4CCCC4)cs3)CC2)cc1Cl` had an RP-LC retention time of 916 s. Consider `CCOc1ccc(-n2nnc(-c3nc(C)c(C(=O)N4CCC(C(N)=O)CC4)s3)c2C)cc1`, for which the RP-LC retention time came to 719 s.

With `CC(C)(C)NC(=O)CN1C(=O)C2CCCCN2c2ccc(S(=O)(=O)N3CCCCC3)cc21` (stereo not given), the RP-LC retention time was found to be 981 s.

On to `COc1ccccc1-c1nc(C2CCN(C(=O)c3n[nH]c4c3CCCC4)CC2)no1`, for which the RP-LC retention time worked out at 759 s. The figure for `O=S(=O)(C1CC1)N1CCCCC1c1nncn1CC1CC1` (stereo not given) is 578 s; for `c1ccc(-c2noc(-c3cc(N4CCOCC4)nc4ccccc34)n2)cc1` it is 1240 s. The figure for `CCN(CC)c1ncnc2c(-c3ccccc3)cn(CC(=O)NC(C)C)c12` is 686 s; for `Cc1ccc(O)c(NC(=O)c2nc3nc(C)cc(C(F)F)n3n2)c1` it is 762 s; for `Cn1c(CNC(=O)C2CCC2)nc2c1CN(S(=O)(=O)c1cccs1)CC2` it is 617 s.
